From ChEMBL document CHEMBL1143039, “Further modification on phenyl acetic acid based quinolines as liver X receptor modulators” (Bioorg Med Chem, 2007)

Tests used:
[1] = target: T1, Oxysterols receptor LXR-beta (Homo sapiens) (UniProt P55055); assay: Agonist activity at human recombinant LXRbeta expressed in Huh7 cells by GAL4 transactivation assay relative to TO901317; format: functional, cell-based; conditions: Huh-7
T1 sequence (whole entry): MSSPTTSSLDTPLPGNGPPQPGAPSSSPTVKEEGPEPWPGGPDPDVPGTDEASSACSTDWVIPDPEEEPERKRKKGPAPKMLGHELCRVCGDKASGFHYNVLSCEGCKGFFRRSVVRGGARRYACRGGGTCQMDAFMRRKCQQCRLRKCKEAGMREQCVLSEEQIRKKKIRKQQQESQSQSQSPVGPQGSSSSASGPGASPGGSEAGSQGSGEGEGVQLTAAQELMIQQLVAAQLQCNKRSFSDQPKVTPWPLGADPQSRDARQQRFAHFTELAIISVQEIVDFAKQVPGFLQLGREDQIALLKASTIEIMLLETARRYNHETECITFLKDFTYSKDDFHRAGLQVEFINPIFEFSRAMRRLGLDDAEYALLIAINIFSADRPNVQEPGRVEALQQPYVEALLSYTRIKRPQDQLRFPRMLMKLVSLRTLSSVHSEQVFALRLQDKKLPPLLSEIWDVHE

[2] = target: T2, Oxysterols receptor LXR-beta (Homo sapiens, UniProt P55055); assay: Agonist activity at human recombinant LXRbeta expressed in Huh7 cells by GAL4 transactivation assay; format: functional, cell-based, Huh-7
T2 sequence (P55055 whole entry): T1 sequence (whole entry)

[3] = target: T3, Oxysterols receptor LXR-alpha (Homo sapiens) (UniProt Q13133); assay: Agonist activity at human recombinant LXRalpha expressed in Huh7 cells by GAL4 transactivation assay relative to TO901317; format: functional, cell-based; conditions: Huh-7
T3 sequence (whole entry): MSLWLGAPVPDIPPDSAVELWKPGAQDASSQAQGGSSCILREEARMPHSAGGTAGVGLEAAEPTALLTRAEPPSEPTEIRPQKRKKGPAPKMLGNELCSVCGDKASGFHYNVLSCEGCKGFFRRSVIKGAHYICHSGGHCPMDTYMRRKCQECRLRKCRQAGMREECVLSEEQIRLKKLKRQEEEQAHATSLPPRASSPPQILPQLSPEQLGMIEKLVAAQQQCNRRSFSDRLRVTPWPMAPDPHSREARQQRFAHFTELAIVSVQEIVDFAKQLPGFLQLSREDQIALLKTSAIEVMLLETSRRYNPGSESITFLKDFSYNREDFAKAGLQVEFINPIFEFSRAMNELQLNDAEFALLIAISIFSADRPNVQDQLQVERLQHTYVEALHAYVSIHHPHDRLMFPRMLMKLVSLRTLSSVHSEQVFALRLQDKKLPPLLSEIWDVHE

Liver microsomes = assay: Stability in human liver microsomes; format: ADME, Microsome
Huh-7 [4] = assay: Increase in SREBP1c gene expression in Huh7 cells; format: functional, cell-based; conditions: Homo sapiens
[5] = Bioavailability in C57BL/6 mouse at 10 mg/kg, po; format: ADME, organism-based; conditions: in vivo
THP-1 [6] = assay: Increase in ABCA1 gene expression in THP1 cells; format: functional, cell-based; conditions: Homo sapiens
[7] = Half life in C57BL/6 mouse at 10 mg/kg, po; format: ADME, organism-based; design: dose 10 mg/kg, route oral; conditions: in vivo
Mus musculus [8] = assay: Increase in plasma triglyceride level in C57BL/6 ApoE knockout mouse at 10 mg/kg, po for 12 weeks; format: functional
[9] = target: T2, Oxysterols receptor LXR-beta
Description: Agonist activity at human recombinant LXRbeta expressed in CHO cells

[10] = target: T2, Oxysterols receptor LXR-beta; assay: biochemical
Description: Displacement of [3H]T0901317 from human recombinant LXRbeta expressed in CHO cells

[11] = Tmax in C57BL/6 mouse at 10 mg/kg, po; format: ADME, organism-based; design: dose 10 mg/kg, route oral; conditions: in vivo
[12] = target: T4, Oxysterols receptor LXR-alpha (Homo sapiens, UniProt Q13133); assay: Agonist activity at human recombinant LXRalpha expressed in Huh7 cells by GAL4 transactivation assay; format: functional, cell-based, Huh-7
T4 sequence (Q13133 whole entry): T3 sequence (whole entry)

[13] = target: T5, Peroxisome proliferator-activated receptor gamma (Homo sapiens, UniProt P37231); assay: Agonist activity at human recombinant PPARgamma by GAL4 transactivation assay; format: functional
T5 sequence (P37231 whole entry): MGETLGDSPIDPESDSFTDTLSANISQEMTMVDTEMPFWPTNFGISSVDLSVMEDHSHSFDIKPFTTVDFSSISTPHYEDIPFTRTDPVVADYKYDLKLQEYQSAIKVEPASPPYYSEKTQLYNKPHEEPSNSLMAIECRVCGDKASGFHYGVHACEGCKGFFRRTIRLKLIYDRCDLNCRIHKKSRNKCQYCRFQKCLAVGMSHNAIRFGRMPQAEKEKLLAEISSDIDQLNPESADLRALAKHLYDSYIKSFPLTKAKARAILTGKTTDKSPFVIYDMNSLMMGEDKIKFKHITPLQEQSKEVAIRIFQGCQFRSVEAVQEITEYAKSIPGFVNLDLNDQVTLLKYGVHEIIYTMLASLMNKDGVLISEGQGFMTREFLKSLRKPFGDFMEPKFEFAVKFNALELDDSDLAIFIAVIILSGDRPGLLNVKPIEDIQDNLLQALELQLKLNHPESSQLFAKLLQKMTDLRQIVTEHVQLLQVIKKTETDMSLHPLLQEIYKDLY

[14] = target: T6, Peroxisome proliferator-activated receptor alpha (Homo sapiens, UniProt Q07869); assay: Agonist activity at human recombinant PPARalpha by GAL4 transactivation assay; format: functional
T6 sequence (Q07869 whole entry): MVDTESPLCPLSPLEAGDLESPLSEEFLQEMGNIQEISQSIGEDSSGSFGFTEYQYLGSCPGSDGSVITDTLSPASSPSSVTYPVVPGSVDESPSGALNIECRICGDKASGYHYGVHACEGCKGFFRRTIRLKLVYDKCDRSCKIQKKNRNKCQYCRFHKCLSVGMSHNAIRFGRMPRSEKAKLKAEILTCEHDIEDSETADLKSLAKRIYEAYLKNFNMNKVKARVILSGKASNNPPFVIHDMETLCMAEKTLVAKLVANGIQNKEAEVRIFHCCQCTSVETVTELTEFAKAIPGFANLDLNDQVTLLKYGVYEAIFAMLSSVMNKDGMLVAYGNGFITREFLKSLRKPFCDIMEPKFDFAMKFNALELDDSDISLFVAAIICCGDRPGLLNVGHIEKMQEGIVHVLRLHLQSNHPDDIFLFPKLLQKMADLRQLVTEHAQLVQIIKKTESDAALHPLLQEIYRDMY

[15] = target: T7, Peroxisome proliferator-activated receptor gamma (Homo sapiens) (UniProt P37231); assay: Agonist activity at human recombinant PPARgamma by GAL4 transactivation assay relative to rosiglitazone; format: functional
T7 sequence (whole entry): T5 sequence (P37231 whole entry)

[16] = Clearance in C57BL/6 mouse at 1 mg/kg, iv; format: ADME, organism-based; design: dose 1 mg/kg, route intravenous; conditions: in vivo
Huh-7 [17] = assay: Increase in SREBP1c gene expression in Huh7 cells relative to TO901317; format: functional, Homo sapiens
[18] = target: T8, Peroxisome proliferator-activated receptor alpha (Homo sapiens) (UniProt Q07869); assay: Agonist activity at human recombinant PPARalpha by GAL4 transactivation assay relative to WY-14643; format: functional
T8 sequence (whole entry): T6 sequence (Q07869 whole entry)

[19] = target: T9, Peroxisome proliferator-activated receptor delta (Homo sapiens, UniProt Q03181); assay: Agonist activity at human recombinant PPARdelta by GAL4 transactivation assay; format: functional
T9 sequence (Q03181 whole entry): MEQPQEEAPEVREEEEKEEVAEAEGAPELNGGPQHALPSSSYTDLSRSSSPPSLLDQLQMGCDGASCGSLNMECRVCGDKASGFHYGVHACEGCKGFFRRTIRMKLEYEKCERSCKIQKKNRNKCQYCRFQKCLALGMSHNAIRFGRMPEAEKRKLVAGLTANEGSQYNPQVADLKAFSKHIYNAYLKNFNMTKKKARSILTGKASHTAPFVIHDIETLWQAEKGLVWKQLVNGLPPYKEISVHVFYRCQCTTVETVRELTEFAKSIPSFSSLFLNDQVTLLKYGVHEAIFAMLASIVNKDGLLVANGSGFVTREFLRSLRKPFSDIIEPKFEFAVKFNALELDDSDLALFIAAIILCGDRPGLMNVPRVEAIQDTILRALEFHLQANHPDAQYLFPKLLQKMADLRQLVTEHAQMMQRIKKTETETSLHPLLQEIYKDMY

Mus musculus [20] = assay: Reduction of aortic arch lesion in C57BL/6 ApoE knockout mouse at 10 mg/kg, po for 12 weeks; format: functional, Pharyngeal arch artery; design: scale not given: the % may be the effect or the level left
[21] = Cmax in C57BL/6 mouse at 10 mg/kg, po; format: ADME, organism-based; design: dose 10 mg/kg, route oral; conditions: in vivo
Mus musculus [22] = assay: Reduction in aortic arch lesion area in C57BL/6 ApoE knockout mouse at 10 mg/kg, po for 12 weeks; format: functional, Pharyngeal arch artery
[23] = AUC (infinity) in C57BL/6 mouse at 10 mg/kg, po; format: ADME, organism-based; design: time infinity, dose 10 mg/kg, route oral; conditions: plasma
[24] = Half life in C57BL/6 mouse at 1 mg/kg, iv; format: ADME, organism-based; design: dose 1 mg/kg, route intravenous; conditions: in vivo
[25] = Volume of distribution in C57BL/6 mouse at 1 mg/kg, iv; format: ADME, organism-based; design: dose 1 mg/kg, route intravenous; conditions: in vivo, read-out: Vss
THP-1 [26] = assay: Increase in ABCA1 gene expression in THP1 cells relative to TO901317; format: functional, Homo sapiens
[27] = target: T4, Oxysterols receptor LXR-alpha; assay: biochemical
Description: Displacement of [3H]T-0901317 from human recombinant LXRalpha expressed in CHO cells

[28] = Stability in mouse liver microsomes; format: ADME, Microsome

SMILES	Activity [1]	EC50 [2]	Activity [3]	Stability (Liver microsomes)	EC50 (Huh-7 [4])	bioavailability [5]	EC50 (THP-1 [6])	half-life [7]	Activity (Mus musculus [8])	EC50 [9]	IC50 [10]	Tmax [11]	EC50 [12]	EC50 [13]	EC50 [14]	Activity [15]	clearance [16]	Activity (Mus musculus [20])	aortic arch lesion area (Mus musculus [22])	IC50 [27]	further results
Cc1cccc2c(-c3cccc(NCc4ccc(CC(=O)O)cc4)c3)c(Cc3ccccc3)cnc12	75%	267 nM	101%	Stable	51.4 nM	53%	438 nM	1.2 h	15.2 mg/dL	90 nM	5 nM	0.25 h	467 nM	1030 nM	1770 nM	46.6%	25 mL/min/kg	57%	4.09%	21 nM	Activity (Huh-7 [17]): 114%; Activity [18]: 7.5%; EC50 [19]: 1970 nM; Cmax [21]: 4190 ng/mL; AUC(0-inf) [23]: 3580 ng·h/mL; half-life [24]: 1.6 h; Vd [25]: 1.2 L/kg; Activity (THP-1 [26]): 139%; Stability [28]: Stable
O=C(O)/C=C/c1ccc(CNc2cccc(-c3c(C(=O)c4ccccc4)cnc4c(C(F)(F)F)cccc34)c2)cc1											> 10000 nM									> 10000 nM	
O=C(O)Cc1ccc(CNc2cccc(-c3c(Cc4ccccc4)cnc4c(Cl)cccc34)c2)cc1	67%	54 nM	89%	Stable	75 nM	57%	81 nM	1.2 h	64.56 mg/dL	23 nM	1.4 nM	0.25 h	121 nM	506 nM	2050 nM	50.6%	37 mL/min/kg	53%	4.47%	5 nM	Activity (Huh-7 [17]): 137%; Activity [18]: 12%; EC50 [19]: 631 nM; Cmax [21]: 2500 ng/mL; AUC(0-inf) [23]: 2580 ng·h/mL; half-life [24]: 1.8 h; Vd [25]: 1.8 L/kg; Activity (THP-1 [26]): 162%; Stability [28]: Stable
NC(=O)c1cnc2c(C(F)(F)F)cccc2c1-c1cccc(NCc2ccc(CC(=O)O)cc2)c1											> 10000 nM									> 10000 nM	
O=C(O)Cc1cccc(OCCCN(Cc2cccc(C(F)(F)F)c2Cl)CC(c2ccccc2)c2ccccc2)c1									2.95 mg/dL									79%	1.99%		
